Data as given in patent US9274101B2 (BIOLOG, Inc., priority 2001, dated 2016).

Legend:
[1] = tested on: ten strains of E. coli; format: cell-based, Escherichia coli; note: key: +: indicates that the organism tested was capable of utilizing the carbon source listed; −: indicates that the organism tested was not capable of utilizing the carbon source listed; indicates weak positive reactions
[2] = tested on: HepG2 cells; assay: HepG2 cells cultured on CYTODEX 3 microcarriers, energy sources; format: cell-based, human; settings: Homo sapiens, HepG2, 68 h, read-out: Responses of HepG2 Cells Cultured on Microcarriers After 68 hours in Culture and a 4 hour Color Development Period; for activity at 30 µM: Conc. 0.03 mM; for activity at 100 µM: Conc. 0.10 mM; for activity at 330 µM: Conc. 0.33 mM; for activity at 1000 µM: Conc. 1.00 mM; for activity at 3300 µM: Conc. 3.3 mM; for activity at 10000 µM: Conc. 10 mM; for activity at 15000 µM: Conc. 15 mM; for activity at 20000 µM: Conc. 20 mM
Summary of the method: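 HepG2 cells on CYTODEX 3 microcarriers, held in methylcellulose-containing DME with 10% HI FBS lacking glucose, glutamine and pyruvate, exposed to test energy sources at 0.033–20 mM final. After 68 h at 37 °C, MTS/PMS read at 490 nm (ref 650 nm) after 4–8 h; cell-free background subtracted, normalized to % no-energy-source control.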

[3] = tested on: HL-60 cells; assay: HL-60 cells in PM1 and PM2 plates, MTS/MPMS color, % negative control; format: cell-based, human; settings: for response of HL-60 cells: in the presence of added pyruvate
[4] = tested on: E. coli MG1655; format: cell-based, Escherichia coli
[5] = tested on: Salmonella typhimurium auxotrophs hisF645 and pyrCΔ73; format: cell-based
[6] = tested on: A549 cells; assay: Substrate utilization by A549 cells at increasing serum, with and without free amino acids; format: cell-based; settings: varying FCS, presence and absence of free amino acids (FIG. 11)
Experimental: Briefly, A549 cells were suspended in RPMI-salts+RPMI-vitamins+1× Pen/Strep with or without RPMI-amino acids at 400,000 cells/mL and dispensed in 50 uL to wells containing a testing substrates (e.g., inosine, pyruvic acid, glucose, L-glutamine, L-arginine, etc.) and FCS to achieve the indicated final concentrations. The cells were incubated for 2 days at 37° C. under 5% CO2-95% air (pre-incubation phase), before a redox dye mix was added. The cells were incubated for an additional 5 hr at 37° C. under 5% CO2-95% air (incubation phase), before color development was measured.

[7] = tested on: Saccharomyces cerevisiae (BY4741); assay: Nutrient stimulation in EA MICROPLATE without methionine; format: cell-based; settings: medium without methionine, 30° C., 2 days
[8] = tested on: E. coli MG1655; format: cell-based, Escherichia coli; remark: listed apart in the source
[9] = tested on: TK-1 cells; assay: TK-1 cells in PM1 and PM2 plates, with or without 0.5 mM sodium pyruvate; format: cell-based, mouse; settings: in the presence of 0.5 mM sodium pyruvate
Experimental: In this Example, methods for testing a murine T lymphoma cells (Butcher et al., Eur. J. Immunol., 10:556-561 [1980]), for their ability to use multiple carbon sources are described. The methods used to culture the TK-1 lymphoma cell line were similar to those used to culture HL-60 cells, as described in Example 27.
TK-1 cells were grown in Falcon tissue culture flasks with vented tops. Culture medium was RPMI 1640 medium (Invitrogen 11875) with 4.5 g/L glucose, 2 mM L-glutamine, 1 mM sodium pyruvate, 0.1 mM nonessential amino acids (NEAA), 0.05 mM 2-mercaptoethanol (2ME), 2 g/L sodium bicarbonate, 5 mg/L phenol red, 50 U/mL penicillin, 50 μg/mL streptomycin, and 10% (v/v) heat inactivated fetal bovine serum (HI FBS, Invitrogen 16140). The cells were seeded at 3×10^5/mL, subcultured at 3 days after initiation of culture to 10^6 cells/mL and used 24 hours later. During all incubations, the cells were kept in an atmosphere of 5% CO2, 90-100% humidity, and 37° C.
A viable cell count was obtained by trypan blue exclusion and an appropriate volume of the cell suspension was placed in a polypropylene centrifuge tube. The cells were washed in DPBS and then resuspended to two-thirds the final volume needed in Dulbecco ? s Modified Eagle ? s Medium (DME, Sigma D5030) with the supplements listed in Table 17, as well as 2-ME, sodium pyruvate and NEAA, and including 10% HI FBS, but without glucose, L-glutamine, sodium pyruvate, and phenol red. This medium is termed DME-RTK. An aliquot was counted by trypan blue exclusion and the cell density was adjusted to 1×10^6/mL. Fifty μL of DME-RTK were added to each well of the appropriate number of half area, 96-well plates (PM1 and PM2 MICROPLATE testing plates). The cells were divided into two lots and one lot received a 1/100 dilution of 100 mM sodium pyruvate (final concentration, 0.5 mM). Cells from both lots were plated at a final cell density of 5×10^4/well (50 μL/well). For each plate containing chemicals and cells, a second, control plate containing only chemicals was prepared. Plates were incubated at 5% CO2, 90-100% humidity, and 37° C. for 1 hour prior to addition of the MTS/MPMS colorimetric reagent (5 μL/well). The color formed in each well 24 hours after addition of the colorimetric reagent, was measured with a plate reader at 490 nm with a reference wavelength of 650 nm. OD values from the control plate were subtracted from the OD values obtained with cells prior to normalizing the data to % negative control.

[10] = tested on: IMR-90 cells; assay: Testing of IMR-90 cells in PM1a testing plates; format: cell-based; settings: for cellular morphology (microscopic): approximately 4.5 hours at 37° C.
Experimental: IMR-90 cells were cultured in DMEM in 150 mm diameter petri dishes to near confluence under suitable conditions (e.g., 5% CO2, at 37° C.). The cells were harvested from 19 petri dishes, using the standard trypsin-EDTA procedure to detach the cells (i.e., 5 minute treatment with trypsin-EDTA), pooled and centrifuged at 1000×g for 5 minutes at 2-8° C., and resuspended in HBSS without phenol red. The cells were again centrifuged and resuspended in 24 ml inoculating fluid (IF-h). The cell density as determined by measurement using a Coulter Counter was about 3,000,000 cells/ml. Two-fold serial dilutions were prepared using prewarmed inoculating fluid, by mixing 12 ml of cell suspension with 12 ml IF-h, to produce six suspensions having 3,000,000 cells/ml (undiluted), 1,500,000 cells/ml, 750,000 cells/ml, 375,000 cells/ml, 187,500 cells/ml, and 93,750 cells/ml. A “no cell” control was also prepared, using 12 ml inoculating fluid. Each of the cell suspensions was then immediately inoculated into a PM1a PHENOTYPE MICROARRAY testing panel (Biolog), with about 100 μl of suspension added per well.
After approximately 4.5 hours of incubation at 37° C. in a CO2 incubator, the PHENOTYPE MICROARRAY testing panels were visually examined. […] The amount of background pink color was somewhat varied, depending upon the cell concentration. At the highest cell densities, there was a light pink color in all of the wells.

[11] = tested on: A549 cells; assay: Metabolic profile of A549 cells with 5% or 20% dialyzed or non-dialyzed FCS; format: cell-based; settings: FCS 5% or 20%, dialyzed or not (FIG. 10)
Experimental: Briefly, A549 cells were suspended at 400,000 cells/mL in RPMI-salts+RPMI-vitamins+1× Pen/Strep (Penicillin/Streptomycin) without amino acids but containing either 5% or 20% dialyzed or non-dialyzed FCS. Cells were dispensed in 50 uL to wells containing a plurality of testing substrates (glycogen, glucose and pyruvate among others) at final concentrations of 20, 15, 10.5, 2.5 and 1.2 mM of each testing substrate. The cells were incubated for 2 days at 37° C. under 5% CO2-95% air (pre-incubation phase), before a redox dye mix was added. The cells were incubated for an additional 5 hr at 37° C. under 5% CO2-95% air (incubation phase), before color development was measured.

[12] = tested on: A549 cells; assay: Glucose utilization by A549 cells in response to insulin, cross-titration; format: cell-based; settings: cross titration format (FIG. 12)
Experimental: Briefly, A549 cells were suspended in RPMI-salts+RPMI-vitamins+1× Pen/Strep without amino acids at 400,000 cells/mL and dispensed in 50 uL to wells containing glucose to achieve the indicated final glucose concentrations. Insulin was then added to achieve the indicated final insulin concentrations. The cells were adapted to glucose by maintaining the cells for 2 days at 37° C. under 5% CO2-95% air (pre-incubation phase), before a redox dye mix was added. Color development was measured after maintaining the cells for an additional 5 hr at 37° C. under 5% CO2-95% air (incubation phase).

Compound: O=C(O)CC(O)(CC(=O)O)C(=O)O [Citric acid]
- carbon source utilization [1]: −
- activity at 30 µM [2]: 103%
- activity at 100 µM [2]: 111%
- activity at 330 µM [2]: 112%
- activity at 1000 µM [2]: 116%
- activity at 3300 µM [2]: 131%
- activity at 10000 µM [2]: 46.8%
- activity at 15000 µM [2]: 31.5%
- activity at 20000 µM [2]: 20.3%
- response in words ([3]; L-glutamine 13.7 mM (well E1), citric acid 10.4 mM (well F2)): inhibitory response

Compound: OC[C@H]1O[C@@H](n2cnc3c(O)ncnc32)[C@H](O)[C@@H]1O [Inosine]
- carbon source utilization [1]: +
- suitability as nitrogen source (growth, purple color) [4]: not suitable
- growth stimulation (well color) [5]: turned weakly purple
- rate of substrate use (dye reduction) [6]: used more rapidly in the presence of amino acids

Compound: CSCC[C@H](N)C(=O)O [L-methionine]
- stimulation of growth/respiration (pink color) [7]: increased pink color
- suitability as sulfur source (growth, purple color) [8]: positive
- suitability as nitrogen source (growth, purple color) [4]: not suitable

Compound: O=C1CC[C@@H](C(=O)O)N1 [L-pyroglutamic acid]
- response of TK-1 cells [9]: gained responses
- suitability as nitrogen source (growth, purple color) [4]: not suitable
- response of HL-60 cells [3]: unable to respond

Compound: CC(=O)C(=O)O [Pyruvic acid]
- cellular morphology (microscopic) [10]: the cells looked healthy
- carbon source utilization [1]: +
- dye reduction [11]: stimulated A549 cell mediated dye reduction
- rate of substrate use (dye reduction) [6]: used more rapidly in the absence of amino acids

Compound: N[C@@H](CCC(=O)N[C@@H](CS)C(=O)NCC(=O)O)C(=O)O [glutathione (reduced form)]
- stimulation of growth/respiration (pink color) [7]: increased pink color
- suitability as sulfur source (growth, purple color) [8]: positive
- suitability as nitrogen source (growth, purple color) [4]: not suitable

Compound: Cc1ncc(CO)c(CO)c1O [pyridoxine]
- stimulation of growth/respiration (pink color) [7]: increased pink color

Compound: OC[C@H]1O[C@H](O)[C@H](O)[C@@H](O)[C@@H]1O [α-D-glucose]
- color of well ([10]; 24 hours of incubation): distinctly darker clump of red cells
- cellular morphology (microscopic) [10]: the cells looked healthy
- carbon source utilization [1]: +
- activity at 30 µM [2]: 96.3%
- activity at 100 µM [2]: 112%
- activity at 330 µM [2]: 126%
- activity at 1000 µM [2]: 122%
- activity at 3300 µM [2]: 132%
- activity at 10000 µM [2]: 110%
- activity at 15000 µM [2]: 84%
- activity at 20000 µM [2]: 50.3%
- dye reduction [11]: stimulated A549 cell mediated dye reduction

Compound: NCCCC(=O)O [γ-aminobutyric acid]
- response of TK-1 cells [9]: gained responses
- response of HL-60 cells [3]: unable to respond

Compound: glycogen
- response of TK-1 cells [9]: lost responses
- dye reduction [11]: stimulated A549 cell mediated dye reduction

Compound: insulin
- effect on glucose depletion (dye reduction) [12]: insulin dependent depletion of a glucose substrate
